Measured values published in patent US20230338463A1, “ICD PEPTIDE AND USE THEREOF FOR HAVING CYTOTOXIC ACTIVITY ON CANCER CELLS” (NATIONAL TSING HUA UNIVERSITY, priority 2022, published 2023).
Non-standard residues stand in square brackets, D forms with d. Residues, ends and D or L forms follow the SMILES beside them. 2Nal = N[C@@H](Cc1ccc2ccccc2c1)C(=O)O

What was measured:
[1] = system: MN-11 cell line; assay type: cell-based, murine; details: 2 h
Description: Besides, evaluation of the killing kinetics of Nal-P-113, Bip-P-113 and Dip-P-113 for MN-11 was determined by MTT assay. Two-fold half 1inhibitory concentration (2 × IC50) was chosen for the experiments and the results were recorded at selected time points (30 mins, 1 hour, 2 hours and 4 hours). […] In 2 hours, the cell survival rate was near 50%.

[2] = system: MN-11 cells (fibrosarcoma); experiment: MN-11 fibrosarcoma tumor regression, intratumoral injection; assay type: in vivo
Description: Female C57BL/6 wild-type mice (4–5 weeks old) were obtained from the BioLASCO Taiwan Co., Ltd (Taiwan). All mice were housed in a specific pathogen-free and controlled environment. During the experiments, female mice, weighing 18–24 g each, were kept in groups of 4 to 6 animals per cage under climate-controlled conditions, with 12 h light/dark cycles and an ambient temperature. The mice were housed in an enriched individually ventilated cage system with free access to standard rodent chow and water ad libitum. The animals were anesthetized during the experimental procedures with 2.5% isoflurane gas. The animals were monitored daily and large-tumor-bearing mice were euthanized with isoflurane. All the procedures were conducted according to the regulations of Laboratory Animal Care and Use Committee or Group Setup and Management and the law of Animal Protection. All animal experiments were approved by National Tsing Hua University (approval ID: 110016), and the protocol was approved by Institutional Animal Care and Use Committee.
Pre-cultured MN-11 cells were harvested in a DMEM medium and inoculated total of 5×10^5 cells (mixed equal volume of matrigel) into the right flank of the abdomen in C57BL/6 mice with subcutaneous injection (6 mice/group). Palpable tumors (50-75 mm^3) were intratumorally injected (i.t.) with Nal-P-113 (1 mg/50 µl saline per mouse) for 3 consecutive days. Negative control (tumor only) mice received saline only (sterile H2O with 0.9% NaCl). Tumor size was measured every 2 days using a caliper, and the volume of tumors was calculated using the following formula: Tumor size (mm^3) = 0.5× (width^2×length). Animals were terminated when the tumor exceeded 2000 mm^3. The survival rates of tumor-bearing mice were observed and recorded continuously until all animals were dead. Additionally, the following were implemented as humane endpoints: signs of unacceptable pain, infection, severe ulceration, or surgical complications.
To investigate the therapeutic potential of Nal-P-113 in vivo, MN-11 cells were subcutaneously implanted into C57BL/6 mice. After eight days post-implantation, tumor volumes reached 50-75 mm^3. Then all animals were injected intratumorally (i.t.) with 50 µl of PBS (Negative control; n=5) or […] Nal-P-113 (n=11). […] At the end of the experiments (35 days), 10 out of 11 animals were survived in the treatment group. […] Nal-P-113 treatment appeared to be nontoxic since no there were effects on the body weight and intake of the animals at the end of the experiment (FIG. 9D and FIG. 9E).

[3] = system: PC 9 cells; experiment: Luciferin-luciferase extracellular ATP, PC 9; assay type: cell-based, human; details: PC 9, 2 × IC50, peak at 0.5 hour
Description: The ATP release from cancer cells were measured using the luciferin-luciferase assay as ATP release had been the iconic feature for immunogenic cell death (ICD).
PC 9 cells were seeded in the 96 well plate at the density of 10,000 cells/ well and allowed to adhere for 48 hours in the condition described previously for MTT assay. […] All of the three ICD peptides were dissolved in the serum-free RPMI 1640 medium for the cells’ treatment. Cells were treated with serum-free RPMI 1640 medium containing PBS as the control group. After being treated for 0.5, 1, 1.5, and 2 hours, the supernatant of cells was collected separately and stored at -20° C. before the ATP assay. The aliquot of reconstituted rL/L reagent in the ENLITEN ATP assay kit (Promega, Madison, WI, USA) was incubated at room temperature for one hour before using. The collected supernatant of the cells was centrifuged at the speed of 500 xg for 10 minutes and took out 100 µL of the supernatant into the black 96 well plate with clear bottom to avoid cross-talk between wells. […] Measurement of the extracellular ATP chemiluminescence was completed using the Wallac VICTOR 3 Multilabel plate reader (PerkinElmer, Shelton, CT, USA)

[4] = system: PC 9 cells; experiment: Extracellular cytochrome c ELISA, PC 9; assay type: cell-based, human; details: PC 9, 2-fold IC50, time not stated
Description: The cytochrome c release was a part of mitochondrial damage-associated molecular patterns, therefore the amount of cytochrome c released into supernatant were measured by cytochrome c ELISA assay.
The cells were washed three times using PBS solution to remove all serum components and 1× 10^6 cells/ mL was solubilised in ice-cold 0.5% Triton-X 100-PBS solution at 2-8° C. for 10 minutes. Then, the speed of 16,000 xg was applied to centrifuge the extract for another 10 minutes, and serially dilute the aliquot of supernatant collected with Calibrator Diluent RD5-18 as described in the manufacturer’s protocol.
Quantifying the volume of cytochrome c released and the results were presented in FIGS. 7A-7C via ELISA assay for 0.5, 1, 1.5, and 2 hours. SEQ ID NO:4 group induced a relatively high amount of cytochrome c compared to SEQ ID NO:3 group and SEQ ID NO: 5 group. The cytochrome c release for SEQ ID NO:4 group was double the amount of SEQ ID NO:3 group and SEQ ID NO: 5 group. The trend of cytochrome c release in SEQ ID NO:4 and SEQ ID NO:3 treated PC 9 cells were escalating from 30 minutes to 4 hours, in contrast the SEQ ID NO: 5 group has fluctuating trend. […] The highest amount of cytochrome c detected in the supernatant for SEQ ID NO:3 and SEQ ID NO: 5 were around 3.5 ng/mL and lower than 2 ng/mL for the least.

CC(=O)N[C@@H](C)C(=O)N[C@@H](CCCCN)C(=O)N[C@@H](CCCNC(=N)N)C(=O)N[C@@H](Cc1ccc2ccccc2c1)C(=O)N[C@@H](Cc1ccc2ccccc2c1)C(=O)NCC(=O)N[C@@H](Cc1ccc(O)cc1)C(=O)N[C@@H](CCCCN)C(=O)N[C@@H](CCCNC(=N)N)C(=O)N[C@@H](CCCCN)C(=O)N[C@@H](Cc1ccccc1)C(=O)N[C@@H](Cc1ccc2ccccc2c1)C(N)=O [SEQ ID NO:3, Ac-AKR Nal Nal GYKRKFNal-NH2] (Ac-AKR[2Nal][2Nal]GYKRKF[2Nal]-NH2)
cell survival rate [1]: ~50% | toxicity (body weight and intake) ([2]; C57BL/6 mice, at the end of the experiment): nontoxic | animals survived ([2]; end of the experiments (35 days), i.t. Nal-P-113 for 3 consecutive days, n=11): 10 out of 11 | complete regression of the tumor ([2]; treatment group n=11, i.t.): 5 animals | tumor recurrence ([2]; treatment group n=11, i.t.): 6 animals | ATP release, highest value (relative light unit) [3]: around 10,000 RLU | highest amount of cytochrome c detected in the supernatant [4]: around 3.5 ng/mL
